Reference: US7786079B2, “Substituted nonadepsipeptides” (priority 2004, dated 2010)
*1 amine or outer side, *2 acyl side, *3 side chain or, on linkers, in order; H or OH if unused. Where a SMILES comes first, the peptide text is derived from it. Bridges are numbered along the chain shown (N, C = ends). Side-chain parts run from the residue outwards. [ ]: non-standard residue; d: D form. The star is where a group is joined. X1 = NC(=O)[C@@H](OC(=O)c1ccc(N2CCOCC2)nc1)[C@H](N[*:1])C(=O)[*:2]; Phe(3R-OH) = O=C([C@@H](N[*:1])[C@H](O[*:3])c1ccccc1)[*:2]; X2 = NC(=O)[C@@H](OC(=O)Nc1ccccc1)[C@H](N[*:1])C(=O)[*:2]; NH(4-morpholinophenyl) = c1cc(N2CCOCC2)ccc1N*; Asn(3S-OH) = NC(=O)[C@@H](O)[C@H](N)C(=O)O; Leu(3R-OH) = CC(C)[C@@H](O)[C@H](N)C(=O)O; aThr = C[C@H](O)[C@H](N)C(=O)O; CO = O=C([*:1])[*:2]

Experiments:
[1] = test system: Streptococcus pneumoniae G9a; assay type: cell-based
Experimental: (§1) Determination of the Minimum Inhibitory Concentration (MIC): The MIC is determined in the liquid dilution test in accordance with the NCCLS guidelines. […] The cultures are incubated at 37° C. for 18-24 hours, S. pneumoniae in the presence of 10% CO2. The lowest substance concentration in each case at which no visible bacterial growth occurs any more is defined as the MIC. The MIC values are reported in μg/ml.

[2] = test system: Staphylococcus aureus 133; assay type: cell-based
Experimental: as §1

E. faecium L4001 = assay type: cell-based
Experimental: as §1

E. faecalis ICB 27159 = assay type: cell-based, Entercococcus faecalis
Experimental: as §1

CC[C@H](C)[C@@H]1NC(=O)[C@@H](CCCNC(=N)N)NC(=O)[C@H](CC(C)C)NC(=O)[C@H]([C@H](O)C(C)C)NC(=O)[C@@H](NC(=O)[C@H](CC(C)C)NC(=O)[C@H](N)CC(C)C)[C@@H](c2ccccc2)OC(=O)[C@H](CO)NC(=O)[C@H]([C@H](OC(=O)Nc2ccccc2)C(N)=O)NC(=O)CNC(=O)[C@H]([C@H](C)O)NC1=O.O=C(O)C(F)(F)F.O=C(O)C(F)(F)F [Example 2] (H-[dL]L[Phe(3R-OH)][Leu(3R-OH)]L[dR]I[aThr]G[X2]S; ester 3-C)
MIC S. pneumoniae G9a [1]: 1 µg/mL
MIC S. aureus 133 [2]: 0.5 µg/mL
MIC E. faecium L4001 (E. faecium L4001): 4 µg/mL
MIC E. faecalis ICB 27159 (E. faecalis ICB 27159): 1 µg/mL

CC[C@H](C)[C@@H]1NC(=O)[C@@H](CCCNC(=N)N)NC(=O)[C@H](CC(C)C)NC(=O)[C@H]([C@H](O)C(C)C)NC(=O)[C@@H](NC(=O)[C@H](CC(C)C)NC(=O)[C@H](N)CC(C)C)[C@@H](c2ccccc2)OC(=O)[C@H](CO)NC(=O)[C@H]([C@H](OC(=O)c2ccc(N3CCOCC3)nc2)C(N)=O)NC(=O)CNC(=O)[C@H]([C@H](C)O)NC1=O.O=C(O)C(F)(F)F.O=C(O)C(F)(F)F [Example 17] (H-[dL]L[Phe(3R-OH)][Leu(3R-OH)]L[dR]I[aThr]G[X1]S; ester 3-C)
MIC S. pneumoniae G9a [1]: 0.5 µg/mL
MIC S. aureus 133 [2]: 0.5 µg/mL
MIC E. faecium L4001 (E. faecium L4001): 4 µg/mL
MIC E. faecalis ICB 27159 (E. faecalis ICB 27159): 2 µg/mL

CC[C@H](C)[C@@H]1NC(=O)[C@@H](CCCNC(=N)NC(=O)Nc2ccc(N3CCOCC3)cc2)NC(=O)[C@H](CC(C)C)NC(=O)[C@H]([C@H](O)C(C)C)NC(=O)[C@@H](NC(=O)[C@H](CC(C)C)NC(=O)[C@H](N)CC(C)C)[C@@H](c2ccccc2)OC(=O)[C@H](CO)NC(=O)[C@H]([C@H](O)C(N)=O)NC(=O)CNC(=O)[C@H]([C@H](C)O)NC1=O.O=C(O)C(F)(F)F [Example 11] (H-[dL]L[Phe(3R-OH)][Leu(3R-OH)]L[dR]([CO-NH(4-morpholinophenyl)])I[aThr]G[Asn(3S-OH)]S; ester 3-C)
MIC S. pneumoniae G9a [1]: 0.5 µg/mL
MIC S. aureus 133 [2]: 0.5 µg/mL
MIC E. faecium L4001 (E. faecium L4001): 1 µg/mL
MIC E. faecalis ICB 27159 (E. faecalis ICB 27159): 0.5 µg/mL
